Positions of bridges follow the written chain, without caps; N, C: chain ends. Non-standard residues stand in square brackets, D forms with d. hCys = N[C@@H](CCS)C(=O)O
System: MC1/MC4
Settings: ratio MC1/MC4
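Note: ratio of EC50 values obtained at MC1 versus MC4 receptors, with MC1 potency measured by luciferase reporter activity in stably transfected cells expressing human MC1.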

Substance | MC1/MC4 selectivity
3-(4-hydroxyphenyl)propionyl-Arg-cyclo[Cys-Glu-His-D-Phe-Arg-Trp-Cys]-NH2 [Compound 66] | 13.23
3-(4-methylbenzoyl)propionyl-Arg-cyclo[Cys-Glu-His-D-Phe-Arg-Trp-Cys]-NH2 [Compound 67] | 9.15
3-guanidinopropionyl-cyclo[Cys-Glu-His-D-Phe-Arg-Trp-Cys]-NH2 [Compound 40] | 25.92
3-guanidinopropionyl-cyclo[hCys-His-D-Phe-Arg-Trp-Cys]-NH2 [Compound 148] | 51.98
4-guanidinobutyryl-cyclo[Cys-Glu-His-D-Phe-Arg-Trp-Cys]-NH2 [Compound 41] | 58.47
4-phenylbutyryl-cyclo[hCys-His-D-Phe-Arg-Trp-Cys]-NH2 [Compound 147] | 0.86
4-phenylbutyryl-cyclo[hCys-His-D-Phe-Arg-Trp-penicillamine]-NH2 [Compound 174] | 4.98
5-guanidinovaleryl-cyclo[Cys-Glu-His-D-Phe-Arg-Trp-Cys]-NH2 [Compound 42] | 44.63
5-guanidinovaleryl-cyclo[hCys-His-D-Phe-Arg-Trp-Cys]-NH2 [Compound 149] | 51.85
Ac-Arg-cyclo[Cys-Cya-His-D-Phe-Arg-Trp-Cys]-NH2 [Compound 26] | 38.90
Ac-Arg-cyclo[Cys-Glu-(1-Me-His)-(4-Cl-D-Phe)-Arg-Trp-Cys]-NH2 [Compound 87] | 316.25
Ac-Arg-cyclo[Cys-Glu-(1-Me-His)-D-Phe-Arg-Trp-Cys]-NH2 [Compound 51] | 76.75
Ac-Arg-cyclo[Cys-Glu-His-(4-Cl-D-Phe)-Arg-Trp-Cys]-NH2 [Compound 50] | 36.10
Ac-Arg-cyclo[Cys-Glu-His-D-Phe-Arg-Trp-Cys]-NH2 [Compound 48] | 26.80
Ac-Arg-cyclo[Cys-Glu-His-D-Phe-Arg-Trp-Cys]-OH [Compound 49] | 35.35
Ac-Arg-cyclo[Cys-His-(4-Cl-D-Phe)-Arg-Trp-hCys]-NH2 [Compound 191] | 127.33
Ac-Arg-cyclo[Cys-His-(4-F-D-Phe)-Arg-Trp-hCys]-NH2 [Compound 190] | 367.10
Ac-CDH[dF]RWC-NH2 (disulfide 1-7) [Compound 6] | 35.74
Ac-CEH[dF]RWCKP-NH2 (disulfide 1-7) [Compound 35] | 1.17
Ac-CEH[dF]RWCSP-NH2 (disulfide 1-7) [Compound 36] | 1.22
Ac-CH[dF]RWC-NH2 (disulfide 1-6) [Compound 1] | 3.91
Ac-CKH[dF]RWC-NH2 (disulfide 1-7) [Compound 16] | 2.94
Ac-CLH[dF]RWC-NH2 (disulfide 1-7) [Compound 15] | 14.75
Ac-CQH[dF]RWC-NH2 (disulfide 1-7) [Compound 8] | 3.33

Substance | MC1/MC4 selectivity
Ac-Cit-cyclo[Cys-Glu-(1-Me-His)-D-Phe-Arg-Trp-Cys]-NH2 [Compound 56] | 21.38
Ac-Cit-cyclo[Cys-Glu-His-D-Phe-Arg-Trp-Cys]-NH2 [Compound 55] | 28.81
Ac-D-Arg-cyclo[Cys-Cya-His-D-Phe-Arg-Trp-Cys]-NH2 [Compound 27] | 30.11
Ac-D-Arg-cyclo[Cys-Glu-His-D-Phe-Arg-Trp-Cys]-NH2 [Compound 52] | 30.54
Ac-KCEH[dF]RWC-NH2 (disulfide 2-8) [Compound 58] | 31.69
Ac-LCEH[dF]RWC-NH2 (disulfide 2-8) [Compound 57] | 29.00
Ac-Lys(ipr)-cyclo[Cys-Glu-His-D-Phe-Arg-Trp-Cys]-NH2 [Compound 59] | 20.92
Ac-Orn-cyclo[Cys-Glu-His-D-Phe-Arg-Trp-Cys]-NH2 [Compound 62] | 46.91
Ac-RCH[dF]RW[hCys]-NH2 (disulfide 2-7) [Compound 189] | 23.31
Ac-R[hCys]H[dF]RWC-NH2 (disulfide 2-7) [Compound 158] | 50.25
Ac-R[hCys]H[dF]RWC-OH (disulfide 2-7) [Compound 159] | 49.41
Ac-Tyr-(1-β-hArg)-cyclo[Cys-Glu-His-D-Phe-Arg-Trp-Cys]-NH2 [Compound 127] | 20.25
Ac-Tyr-Arg-cyclo[Cys-Cya-His-D-Phe-Arg-Trp-Cys]-NH2 [Compound 28] | 26.35
Ac-Tyr-Arg-cyclo[Cys-Glu-(1-Bom-His)-D-Phe-Arg-Trp-Cys]-NH2 [Compound 101] | 0.97
Ac-Tyr-Arg-cyclo[Cys-Glu-(1-Me-D-His)-(4-Br-D-Phe)-Arg-Trp-Cys]-NH2 [Compound 91] | 21.14
Ac-Tyr-Arg-cyclo[Cys-Glu-(1-Me-D-His)-(4-Cl-D-Phe)-Arg-Trp-Cys]-NH2 [Compound 88] | 9.07
Ac-Tyr-Arg-cyclo[Cys-Glu-(1-Me-D-His)-(4-F-D-Phe)-Arg-Trp-Cys]-NH2 [Compound 85] | 2.66
Ac-Tyr-Arg-cyclo[Cys-Glu-(1-Me-D-His)-(4-OMe-D-Phe)-Arg-Trp-Cys]-NH2 [Compound 95] | 3.21
Ac-Tyr-Arg-cyclo[Cys-Glu-(1-Me-D-His)-D-Phe-Arg-Trp-Cys]-NH2 [Compound 82] | 1.66
Ac-Tyr-Arg-cyclo[Cys-Glu-(1-Me-His)-(4-Br-D-Phe)-Arg-Trp-Cys]-NH2 [Compound 90] | 237.22
Ac-Tyr-Arg-cyclo[Cys-Glu-(1-Me-His)-(4-F-D-Phe)-Arg-Trp-Cys]-NH2 [Compound 84] | 150.60
Ac-Tyr-Arg-cyclo[Cys-Glu-(1-Me-His)-(4-OMe-D-Phe)-Arg-Trp-Cys]-NH2 [Compound 94] | 16.97
Ac-Tyr-Arg-cyclo[Cys-Glu-(1-Me-His)-D-Phe-Arg-Trp-Cys]-NH2 [Compound 81] | 101.69
Ac-Tyr-Arg-cyclo[Cys-Glu-(1-benzyl-D-His)-D-Phe-Arg-Trp-Cys]-NH2 [Compound 100] | 1.67

Substance | MC1/MC4 selectivity
Ac-Tyr-Arg-cyclo[Cys-Glu-(1-benzyl-His)-D-Phe-Arg-Trp-Cys]-NH2 [Compound 99] | 88.42
Ac-Tyr-Arg-cyclo[Cys-Glu-(1-pyrazolyl-Ala)-D-Phe-Arg-Trp-Cys]-NH2 [Compound 102] | 4.76
Ac-Tyr-Arg-cyclo[Cys-Glu-(2-pyrazine-Ala)-D-Phe-Arg-Trp-Cys]-NH2 [Compound 105] | 24.04
Ac-Tyr-Arg-cyclo[Cys-Glu-(3-Me-His)-D-Phe-Arg-Trp-Cys]-NH2 [Compound 96] | 20.87
Ac-Tyr-Arg-cyclo[Cys-Glu-(4-phenyl-1H-imidazol-2-yl-Ala)-D-Phe-Arg-Trp-Cys]-NH2 [Compound 103] | 75.59
Ac-Tyr-Arg-cyclo[Cys-Glu-(4-phenyl-1H-imidazol-2-yl-D-Ala)-D-Phe-Arg-Trp-Cys]-NH2 [Compound 104] | 3.68
Ac-Tyr-Arg-cyclo[Cys-Glu-(5-Me-D-His)-D-Phe-Arg-Trp-Cys]-NH2 [Compound 98] | 7.43
Ac-Tyr-Arg-cyclo[Cys-Glu-(5-Me-His)-D-Phe-Arg-Trp-Cys]-NH2 [Compound 97] | 8.03
Ac-Tyr-Arg-cyclo[Cys-Glu-(β-(1,2,4-triazol-3-yl))-Ala)-D-Phe-Arg-Trp-Cys]-NH2 [Compound 106] | 23.95
Ac-Tyr-Arg-cyclo[Cys-Glu-(β-(1,2,4-triazol-3-yl))-D-Ala)-D-Phe-Arg-Trp-Cys]-NH2 [Compound 107] | 1.00
Ac-Tyr-Arg-cyclo[Cys-Glu-(β-(1,3-thiazol-4-yl)-Ala)-D-Phe-Arg-Trp-Cys]-NH2 [Compound 112] | 5.62
Ac-Tyr-Arg-cyclo[Cys-Glu-(β-(2-furyl)-Ala)-D-Phe-Arg-Trp-Cys]-NH2 [Compound 110] | 4.27
Ac-Tyr-Arg-cyclo[Cys-Glu-(β-((1-benzyl)-1,2,4-triazol-3-yl))-D-Ala)-D-Phe-Arg-Trp-Cys]-NH2 [Compound 108] | 5.99
Ac-Tyr-Arg-cyclo[Cys-Glu-(β-((1-benzyl)-1,2,4-triazol-3-yl))-D-Ala)-D-Phe-Arg-Trp-Cys]-NH2 [Compound 109] | 6.05
Ac-Tyr-Arg-cyclo[Cys-Glu-(β-(pyridin-4-yl)-Ala)-D-Phe-Arg-Trp-Cys]-NH2 [Compound 113] | 13.51
Ac-Tyr-Arg-cyclo[Cys-Glu-(β-(thien-2-yl)-Ala)-D-Phe-Arg-Trp-Cys]-NH2 [Compound 111] | 7.67
Ac-Tyr-Arg-cyclo[Cys-Glu-His-(4-Br-D-Phe)-Arg-Trp-Cys]-NH2 [Compound 89] | 71.43
Ac-Tyr-Arg-cyclo[Cys-Glu-His-(4-Cl-D-Phe)-Arg-Trp-Cys]-NH2 [Compound 86] | 66.21
Ac-Tyr-Arg-cyclo[Cys-Glu-His-(4-F-D-Phe)-Arg-Trp-Cys]-NH2 [Compound 83] | 45.95
Ac-Tyr-Arg-cyclo[Cys-Glu-His-(4-Me-D-Phe)-Arg-Trp-Cys]-NH2 [Compound 92] | 12.06
Ac-Tyr-Arg-cyclo[Cys-Glu-His-(4-OMe-D-Phe)-Arg-Trp-Cys]-NH2 [Compound 93] | 1.48
Ac-Tyr-Arg-cyclo[Cys-Glu-His-D-Phe-Arg-Trp-Cys] alcohol [Compound 78] | 9.00
Ac-Tyr-Arg-cyclo[Cys-Glu-His-D-Phe-Arg-Trp-Cys]-2-(2-aminoethoxy)ethanol [Compound 115] | 2.00
Ac-Tyr-Arg-cyclo[Cys-Glu-His-D-Phe-Arg-Trp-Cys]-Lys-Pro alcohol [Compound 122] | 0.90

From US20060293223A1 (Eli Lilly and Company Patent Division, priority 2003, published 2006)
